Laboratory results taken from patent US20260070917A1, “CYCLIN DEPENDENT KINASE DEGRADERS AND METHODS OF USE THEREOF” (Differentiated Therapeutics Inc, priority 2023, published 2026).
Read-outs that look alike come from different tables or passages of the source.

Experiments:
Type in all cases: cell-based
CDK2 = molecular target: T1, CDK2 (Homo sapiens, UniProt P24941); assay: HiBit Assay Protocol for CDK2 (HIBIT protein quantification, degradation); conditions: HEK293-CDK2-Hibit cells, compound treatment for 6 hours; for DC50: ABS DC50
T1 construct: host or cells: HEK293-CDK2-Hibit
Summary of the method: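 HEK293 cells expressing HiBiT-tagged CDK2 were seeded overnight, then treated 6 h with a 3-fold, 10-point compound dilution series. CDK2 levels were read as luminescence after lytic HiBiT/LgBiT detection, normalised to DMSO-only and medium-only controls, and DC50 derived by curve fitting.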

CDK9 = molecular target: T2, CDK9 (Homo sapiens, UniProt P50750); assay: HiBit Assay Protocol for CDK9 (HIBIT protein quantification, degradation); conditions: HEK293-CDK9-Hibit cells, compound treatment for 6 hours, read-out: CDK9 HIBIT Protein Quantification Maximum
T2 construct: host or cells: HEK293-CDK9-Hibit
Summary of the method: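 HEK293 cells carrying HiBiT-tagged CDK9 treated 6 h with compounds in a 3-fold, 10-point dilution series. CDK9 level read by lytic Nano-Glo HiBiT/LgBiT luminescence and normalized to 0.1% DMSO (high) and medium-only (low) controls. DC50 from curve fitting.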

CCNE1 = molecular target: T3, CCNE1 (Homo sapiens, UniProt P24864); assay: HiBit Assay Protocol for CCNE1 (HIBIT protein quantification, degradation); conditions: HEK293-CCNE1-Hibit cells, compound treatment for 6 hours
T3 construct: host or cells: HEK293-CCNE1-Hibit
Summary of the method: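 HEK293 cells expressing HiBiT-tagged CCNE1 were seeded overnight, then treated 6 h with a 3-fold, 10-point compound dilution series. HiBiT levels were read by lytic LgBiT luminescence and normalised to DMSO-only (high) and medium-only (low) controls. DC50 was derived by curve fitting.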

T2 sequence (P50750 whole entry): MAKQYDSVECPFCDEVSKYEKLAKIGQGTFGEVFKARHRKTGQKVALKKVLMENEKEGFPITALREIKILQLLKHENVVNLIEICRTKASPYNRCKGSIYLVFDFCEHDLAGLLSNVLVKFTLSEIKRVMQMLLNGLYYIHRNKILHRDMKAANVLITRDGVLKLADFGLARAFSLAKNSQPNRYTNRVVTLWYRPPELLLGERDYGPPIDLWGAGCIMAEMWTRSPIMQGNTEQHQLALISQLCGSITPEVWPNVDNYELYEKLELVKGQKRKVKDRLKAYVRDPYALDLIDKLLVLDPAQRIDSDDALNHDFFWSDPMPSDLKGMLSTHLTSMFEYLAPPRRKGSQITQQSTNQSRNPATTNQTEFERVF
T3 sequence (P24864 whole entry): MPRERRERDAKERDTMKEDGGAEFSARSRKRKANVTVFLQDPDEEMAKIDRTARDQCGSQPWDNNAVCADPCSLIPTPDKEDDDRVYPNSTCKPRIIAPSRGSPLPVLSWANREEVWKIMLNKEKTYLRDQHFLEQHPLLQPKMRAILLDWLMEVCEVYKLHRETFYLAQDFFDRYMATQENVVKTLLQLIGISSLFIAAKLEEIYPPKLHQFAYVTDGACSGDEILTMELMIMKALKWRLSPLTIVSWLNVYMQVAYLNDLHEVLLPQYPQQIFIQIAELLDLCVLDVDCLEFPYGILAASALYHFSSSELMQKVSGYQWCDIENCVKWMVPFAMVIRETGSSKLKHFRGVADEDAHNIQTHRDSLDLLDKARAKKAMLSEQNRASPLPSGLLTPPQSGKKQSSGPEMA

SMILES	CDK2 HIBIT Protein Quantification Maximum (CDK2)	DC50 (CDK2)	Dmax (CDK9)	CCNE1 HIBIT Protein Quantification Maximum (CCNE1)	Dmax (CDK9; 6 h)
Cn1c(=O)n(C2CCC(=O)NC2=O)c2cccc(N3CCC(Cn4cc(S(=O)(=O)N5CCC(Nc6ncc7c(n6)N([C@@H]6CCC[C@@H](O)C6)C(=O)C76CC6)CC5)cn4)CC3)c21 (stereo partly drawn) [Compound 130, 3-(4-(4-((4-((4-((7′-((1R,3R)-3-Hydroxycyclohexyl)-6′-oxo-6′,7′-dihydrospiro[cyclopropane-1,5′-pyrrolo[2,3-d]pyrimidin]-2′-yl)amino)piperidin-1-yl)sulfonyl)-1H-pyrazol-1-yl)methyl)piperidin-1-yl)-3-methyl-2-oxo-2,3-dihydro-1H-benzo[d]imidazol-1-yl)piperidine-2,6-dione]	76%	15.8 nM	13%	34%	
O=C1CCC(N2Cc3cc(CN4CC(Oc5cccc(S(=O)(=O)N6CCC(Nc7ncc8c(n7)N([C@@H]7CCC[C@@H](O)C7)C(=O)C87CC7)CC6)c5)C4)ccc3C2=O)C(=O)N1 (stereo partly drawn) [Compound 132, 3-[5-({3-[3-(4-{7′-[(1R,3R)-3-Hydroxycyclohexyl]-6′-oxospiro[cyclopropane-1,5′-pyrrolo[2,3-d]pyrimidin]-2′-ylamino}piperidin-1-ylsulfonyl)phenoxy]azetidin-1-yl}methyl)-1-oxo-3H-isoindol-2-yl]piperidine-2,6-dione]	48%			47%	7%
O=C1CCC(N2Cc3cc(N4CCC(N5CC(Oc6cccc(S(=O)(=O)N7CCC(Nc8ncc9c(n8)N([C@@H]8CCC[C@@H](O)C8)C(=O)C98CC8)CC7)c6)C5)CC4)ccc3C2=O)C(=O)N1 (stereo partly drawn) [Compound 134, 3-[5-(4-{3-[3-(4-{7′-[(1R,3R)-3-Hydroxycyclohexyl]-6′-oxospiro[cyclopropane-1,5′-pyrrolo[2,3-d]pyrimidin]-2′-ylamino}piperidin-1-ylsulfonyl)phenoxy]azetidin-1-yl}piperidin-1-yl)-1-oxo-3H-isoindol-2-yl]piperidine-2,6-dione]	74%	4.22 nM	31%	18%	
CC1CCCC1N1C(=O)C2(CC2)c2cnc(NC3CCN(S(=O)(=O)N4CC5(CCCN(C6CCCN(c7cccc8c7n(C)c(=O)n8C7CCC(=O)NC7=O)C6)C5)C4)CC3)nc21 (stereo not shown) [Compound 135, 3-{3-Methyl-4-[3-(2-{4-[7′-(2-methylcyclopentyl)-6′-oxospiro[cyclopropane-1,5′-pyrrolo[2,3-d]pyrimidin]-2′-ylamino]piperidin-1-ylsulfonyl}-2,6-diazaspiro[3.5]nonan-6-yl)piperidin-1-yl]-2-oxo-1,3-benzodiazol-1-yl}piperidine-2,6-dione]	54%	16.3 nM	8%	8%	
CC1CCCC1N1C(=O)C2(CC2)c2cnc(NC3CCN(S(=O)(=O)N4CC5(CCCN(c6cccc(-c7cccc8c7n(C)c(=O)n8C7CCC(=O)NC7=O)c6)C5)C4)CC3)nc21 (stereo not shown) [Compound 136, 3-{3-Methyl-4-[3-(2-{4-[7′-(2-methylcyclopentyl)-6′-oxospiro[cyclopropane-1,5′-pyrrolo[2,3-d]pyrimidin]-2′-ylamino]piperidin-1-ylsulfonyl}-2,6-diazaspiro[3.5]nonan-6-yl)phenyl]-2-oxo-1,3-benzodiazol-1-yl}piperidine-2,6-dione]	61%	131 nM	14%	7%	
CC1CCCC1N1C(=O)C2(CC2)c2cnc(NC3CCN(S(=O)(=O)N4CC5(CCCN(C6CCN(c7cccc8c7n(C)c(=O)n8C7CCC(=O)NC7=O)C6)C5)C4)CC3)nc21 (stereo not shown) [Compound 137]	52%	3.25 nM		38%	8%
CC1CCCC1N1C(=O)C2(CC2)c2cnc(NC3CCN(S(=O)(=O)N4CC5(CCCN(CCOc6cccc7c6n(C)c(=O)n7C6CCC(=O)NC6=O)C5)C4)CC3)nc21 (stereo not shown) [Compound 138, 3-{3-Methyl-4-[2-(2-{4-[7′-(2-methylcyclopentyl)-6′-oxospiro[cyclopropane-1,5′-pyrrolo[2,3-d]pyrimidin]-2′-ylamino]piperidin-1-ylsulfonyl}-2,6-diazaspiro[3.5]nonan-6-yl)ethoxy]-2-oxo-1,3-benzodiazol-1-yl}piperidine-2,6-dione]	45%			14%	3%
CC1CCCC1N1C(=O)C2(CC2)c2cnc(NC3CCN(S(=O)(=O)N4CC5(CCCN(C6CCN(c7cccc8c7n(C)c(=O)n8C7CCC(=O)NC7=O)CC6)C5)C4)CC3)nc21 (stereo not shown) [Compound 139]	65%	3.23 nM		50%	11%
CC1CCCC1N1C(=O)C2(CC2)c2cnc(NC3CCN(S(=O)(=O)C4CCN(CC5CCN(c6ccc7c(c6)n(C)c(=O)n7C6CCC(=O)NC6=O)CC5)C4)CC3)nc21 (stereo not shown) [Compound 140, 3-(3-Methyl-5-{4-[(3-{4-[7′-(2-methylcyclopentyl)-6′-oxospiro[cyclopropane-1,5′-pyrrolo[2,3-d]pyrimidin]-2′-ylamino]piperidin-1-ylsulfonyl}pyrrolidin-1-yl)methyl]piperidin-1-yl}-2-oxo-1,3-benzodiazol-1-yl)piperidine-2,6-dione]	71%	2.09 nM		20%	8%
CC1CCCC1N1C(=O)C2(CC2)c2cnc(NC3CCN(S(=O)(=O)N4CCC5(CCN(CCCCCCCOc6cccc7c6n(C)c(=O)n7C6CCC(=O)NC6=O)C5)C4)CC3)nc21 (stereo not shown) [Compound 141, 3-(3-Methyl-4-{[7-(7-{4-[7′-(2-methylcyclopentyl)-6′-oxospiro[cyclopropane-1,5′-pyrrolo[2,3-d]pyrimidin]-2′-ylamino]piperidin-1-ylsulfonyl}-2,7-diazaspiro[4.4]nonan-2-yl)heptyl]oxy}-2-oxo-1,3-benzodiazol-1-yl)piperidine-2,6-dione]	49%			25%	27%
CC1CCCC1N1C(=O)C2(CC2)c2cnc(NC3CCN(S(=O)(=O)N4CC5(CCCCN5CC5CCN(c6cccc7c6n(C)c(=O)n7C6CCC(=O)NC6=O)CC5)C4)CC3)nc21 (stereo not shown) [Compound 142]	53%	36.1 nM		26%	5%
CC1CCCC1N1C(=O)C2(CC2)c2cnc(NC3CCN(S(=O)(=O)N4CC5(CN(CCCCOc6ccc7c(c6)n(C)c(=O)n7C6CCC(=O)NC6=O)C5)C4)CC3)nc21 (stereo not shown) [Compound 143]	11%			1%	-2%
CC1CCCC1N1C(=O)C2(CC2)c2cnc(NC3CCN(S(=O)(=O)N4CC5(CN(CC6CCN(c7ccc8c(c7)n(C)c(=O)n8C7CCC(=O)NC7=O)CC6)C5)C4)CC3)nc21 (stereo not shown) [Compound 144]	75%	1.97 nM		39%	49%
CC1CCCC1N1C(=O)C2(CC2)c2cnc(NC3CCN(S(=O)(=O)N4CCN(CC5CCN(c6cccc7c6n(C)c(=O)n7C6CCC(=O)NC6=O)CC5)CC4)CC3)nc21 (stereo not shown) [Compound 145]	79%	4.08 nM		25%	14%
Cn1c(=O)n(C2CCC(=O)NC2=O)c2ccc(C3CCN(Cc4cccc(S(=O)(=O)N5CCC(Nc6ncc7c(n6)N([C@@H]6CCC[C@@H](O)C6)C(=O)C76CC6)CC5)c4)CC3)cc21 (stereo partly drawn) [Compound 147, 3-[5-(1-{[3-(4-{7′-[(1R,3R)-3-Hydroxycyclohexyl]-6′-oxospiro[cyclopropane-1,5′-pyrrolo[2,3-d]pyrimidin]-2′-ylamino}piperidin-1-ylsulfonyl)phenyl]methyl}piperidin-4-yl)-3-methyl-2-oxo-1,3-benzodiazol-1-yl]piperidine-2,6-dione]	64%	11 nM	2%	13%	
Cn1c(=O)n(C2CCC(=O)NC2=O)c2cccc(C3CCN(Cc4cccc(S(=O)(=O)N5CCC(Nc6ncc7c(n6)N([C@@H]6CCC[C@@H](O)C6)C(=O)C76CC6)CC5)c4)CC3)c21 (stereo partly shown) [Compound 148]	78%	6 nM		44%	2%
Cn1c(=O)n(C2CCC(=O)NC2=O)c2ccc(-c3ccc(Oc4cccc(S(=O)(=O)N5CCC(Nc6ncc7c(n6)N([C@@H]6CCC[C@@H](O)C6)C(=O)C76CC6)CC5)c4)cc3)cc21 (stereo partly drawn) [Compound 149, 3-(5-{4-[3-(4-{7′-[(1R,3R)-3-Hydroxycyclohexyl]-6′-oxospiro[cyclopropane-1,5′-pyrrolo[2,3-d]pyrimidin]-2′-ylamino}piperidin-1-ylsulfonyl)phenoxy]phenyl}-3-methyl-2-oxo-1,3-benzodiazol-1-yl)piperidine-2,6-dione]	69%	13.9 nM		11%	17%
